According to US10271734B2, “Photoacoustic apparatus” (CANON KABUSHIKI KAISHA, priority 2015, dated 2019):

Assays:
[1] = Temporal change in blood ICG concentration after tail vein injection into a nude mouse (FIG. 2); type: in vivo; conditions: ICG 20 nanomoles
Experimental: FIG. 2 is a diagram illustrating a temporal change in the concentration of the contrast agent 1012 in the blood when ICG (20 nanomoles) which is the contrast agent 1012 was injected into a tail vein of a nude mouse. The vertical axis of FIG. 2 represents the blood ICG concentration and the horizontal axis represents the time elapsed after the contrast agent 1012 was injected to the nude mouse.

[2] = J Clin Invest., 1960 April, 39(4): p. 592-600; cited from earlier work

CC1(C)C(/C=C/C=C/C=C/C=C2\N(CCCCS(=O)(=O)O)c3ccc4ccccc4c3C2(C)C)=[N+](CCCCS(=O)(=O)[O-])c2ccc3ccccc3c21 [ICG, Indocyanine green]
time after injection within which the concentration of ICG present in the blood decreases to a half or smaller [1]: ≤ 10 min | half-life of ICG in the blood [2]: approximately 3 minutes
